In patent publication US20120316203A1, “Compositions and Methods for Inhibition of Cancers” (THE OHIO STATE UNIVERSITY RESEARCH FOUNDATION, priority 2009, published 2012):

Key:
[1] = system: A2780 and SKOV3 cells; experiment: Cell-invasion (Boyden chamber) assay; format: cell-based, human; conditions: 10 μM
Protocol: Cell-migration assay was performed by wound-healing method. Cells were plated at equal density and grown to 90% confluence. Wounds were created using a sterile pipette tip. Cells were then rinsed with medium and replaced with the fresh medium and incubated with HO-3867 (10 μM). Areas of wound were marked and photographed at various time-points with a phase-contrast microscope. Cell-invasive assay was measured by an in vitro Boyden chamber assay. Briefly, 1×10^5 cells in 0.5 ml of serum-free RPMI 1640 medium were added to the wells of 8-μm-diameter pore membrane Boyden chambers, either coated with (BD Biosciences, Franklin Lake, N.J.) or without (Corning, Corning, N.Y.) Matrigel. Cells were allowed to invade for 24 hours. Cells that had not penetrated the filters were removed by scrubbing with cotton swabs. Chambers were fixed in 100% methanol for 2 min, stained in 0.5% crystal violet for 2 min, rinsed in PBS and examined using a bright-field microscope. Values for invasion were obtained by counting five fields per membrane and represented as the average of three independent experiments performed over multiple days.

[2] = Body weight and diet consumption of tumor-bearing animals; format: in vivo; conditions: 25, 50, and 100 ppm in feed, 5 weeks
Protocol: Cultured A2780 cancer cells (2×10^6 cells in […] of PBS) were s.c. injected into the back of 6-week-old BALB/c nude mice from the National Cancer Institute. Five to 7 days later, when the tumors reached 3 to 5 mm in diameter, the mice were divided (n=9/group) in a manner to equalize the mean tumor diameter among the groups. The control group was given a normal diet (no treatment), whereas the experimental groups were treated using the DAP compounds mixed with the animal feed (Harlan Teklad) at three different levels (25, 50, and 100 ppm). The doses were chosen based on an initial dose-response study optimized to produce an observable effect on tumor growth. The size of the tumor was measured twice per week using a digital Vernier caliper. The tumor volume was determined from the orthogonal dimensions (d1, d2, d3) using the formula (d1×d2×d3)×π/6. Thirty five days after the beginning of HO-3867 treatment, the mice were sacrificed and the tumors were resected. The tumor tissues were then subjected to immunoblot analysis.
The mice were treated with HO-3867 and the tumor size as measured twice weekly for 5 weeks. […] We also measured the body weight and diet consumption of tumor-bearing animals.

[3] = system: HSMC; experiment: Intracellular ROS by DCF fluorescence, HSMC; format: cell-based, human; conditions: 10 μM, 12 h
Protocol: The ROS levels in cells treated with DAPs were determined using H2DCF-DA, a membrane-permeative fluorogenic probe. The acetate and acetoxymethyl ester groups of this probe are enzymatically cleaved inside living cells. The probe can then be oxidized by intracellular oxidants (ROS) to give a product, DCF, which emits a strong, green fluorescence (λex=504 nm; λem=529 nm). The fluorescence intensity is proportional to the level of cellular oxidants. […] The cells were further incubated in the dark for 20 min and washed with protein-free medium, and then fluorescence images were immediately captured with a Nikon Eclipse TE2000-U camera system using excitation/emission at 495/520 nm. The captured images were then analyzed using MetaMorph image analysis software.

[4] = system: HER1, SREBP1, ERK1/2, MMP-2 and VEGF in A2780 and SKOV3 cells; experiment: Blotting of FAS/FAK-regulating proteins; format: cell-based, human; conditions: 10 μM, 24 h
Protocol: Cells in RPMI 1640 medium were treated with DMSO (control) or HO-3867 (10 μM) for 24 h. Equal volumes of DMSO (0.1% v/v) were present in each treatment. Following treatment, the cell lysates were prepared in nondenaturing lysis buffer containing 10-mM Tris-HCl (pH 7.4), 150-mM NaCl, 1% Triton X-100, 1-mM EDTA, 1-mM EGTA, 0.3-mM phenylmethylsulfonyl fluoride, 0.2-mM sodium orthovanadate, 0.5% NP40, 1-μg/ml aprotinin, and 1-μg/ml leupetin. The lysates were centrifuged at 10,000×g for 20 min at 4° C., and the supernatant was separated. The protein concentration in the lysates was determined using a Pierce detergent-compatible protein assay kit. For Western blotting, 25 to 50 μg of protein lysate per sample was denatured in 2×SDS-PAGE sample buffer and subjected to SDS-PAGE on a 10% tris-glycine gel. The separated proteins were transferred to a PVDF membrane and blocked with 5% nonfat milk powder (w/v) in TBST (10-mM Tris, 10-mM NaCl, 0.1% Tween 20) for 1 h at room temperature or overnight at 4° C. The membranes were then incubated with the primary antibodies. The bound antibodies were detected with horseradish peroxidase (HRP)-labeled sheep anti-mouse IgG or HRP-labeled donkey anti-rabbit IgG using an enhanced chemiluminescence detection system (ECL Advanced kit). Protein expressions were determined using Image Gauge version 3.45.

[5] = system: pSTAT3 (Tyr705 and Ser727) and phospho-JAK1 (Tyr1022/1023) in A2780 cells; experiment: Immunoblot and immunoprecipitation of JAK/STAT3 signaling; format: cell-based, human; conditions: 10 or 20 μmol/L, 24 hours
Protocol: Equal volumes of DMSO (0.1% v/v) were present in each treatment. Following treatment, the cell lysates were prepared in non-denaturing lysis buffer containing 10 mmol/L Tris-HCl (pH 7.4), 150 mmol/L NaCl, 1% Triton X-100, 1 mmol/L EDTA, 1 mmol/L EGTA, 0.3 mmol/L phenylmethyl-sulfonyl fluoride, 0.2 mmol/L sodium orthovanadate, 0.5% NP40, 1 μg/mL aprotinin, and 1 μg/mL leupetin. The lysates were centrifuged at 10,000×g for 20 minutes at 4° C. and the supernatant was separated. The protein concentration in the lysates was determined using a Pierce detergent-compatible protein assay kit. For Western blotting, 25 to 50 μg of protein lysate per sample were denatured in 2×SDS-PAGE sample buffer and subjected to SDS-PAGE on a 10% tris-glycine gel. The separated proteins were transferred to a polyvinylidene fluoride membrane and were blocked with 5% nonfat milk powder (w/v) in TBST (10 mmol/L Tris, 10 mmol/L NaCl, 0.1% Tween 20) for 1 hour at room temperature or overnight at 4° C. The membranes were then incubated with the primary antibodies. The bound antibodies were detected with horseradish peroxidase-labeled sheep anti-mouse IgG or horseradish peroxidase-labeled donkey anti-rabbit IgG using an enhanced chemiluminescence detection system (ECL Advanced kit). Protein expressions were determined using the Image Gauge v. 3.45 software.

SMILES: CC1(C)C=C(CN2C/C(=C\c3ccc(F)cc3)C(=O)/C(=C/c3ccc(F)cc3)C2)C(C)(C)N1O [HO-3867, 1-[(1-oxyl-2,2,5,5-tetramethyl-2,5-dihydro-1H-pyrrol-3-yl)methyl]-(3E,5E)-3,5-bis(4-fluorobenzylidene)piperidin-4-one]
- cell invasion ([1]; 24 hours, versus untreated cells): significant inhibition
- VEGF-induced invasion ([1]; 24-h incubation, versus VEGF group): significantly inhibited
- gross signs of toxicity (body weight, diet consumption) [2]: did not show any gross signs of toxicity
- amounts of ROS in HSMC compared to A2780 cells [3]: significantly lower amounts of ROS
- intracellular ROS generation (DCF fluorescence) in HSMC [3]: not significantly different from that of the untreated cells
- pHER2, pERK1/2, SREBP1, MMP-2, and VEGF [4]: inhibited
- pSTAT3 (Tyr705 and Ser727) levels [5]: significantly decreased
- phosphor-JAK1 (Tyr1022/1023) ([5]; versus unexposed controls): substantial decrease
